# Experimental data from EP0235408B1, “Pharmaceutical composition and treatment” (THE UNIVERSITY OF TORONTO I[…], priority 1986, dated 1987).
# Values joined by “and” are separate entries in the source; they are usually repeats but may differ in a detail not shown here. Equal values may be shown once. Where a name gives a salt, the structure may show the parent alone. Marks after values point to notes of the source that are not given here.
# What was measured:
# laboratory rats [1] = assay: Effects on sleep and righting time, oral administration (Example 5); format: in vivo; settings: 10 mM/kg body weight; for TIME SLEPT (mins) AVG 1: average based only on the animals which slept
# Description: The effects on sleep and- righting time of the oral and in traperitoneal administration of the prior art compound hydroxybutyrate sodium salt (GHB) and 4-acetoxybutanoate (EAB) according to the invention were determined, using groups of labotatory rats.
# In a first experiment, GHB was administered at high dosage level (25 mM/Kg or 3 g/kg body weight) orally to three animals. […] The most likely reason is that oral GHB is poorly absorbed.
# In a second experiment each of GHB and EAB was given to separate groups of twelve and eleven animals respectively, by oral administration at the same, lower dosage level of 10 mM/kg body weight.
# laboratory rats [2] = assay: Drug-induced sleep tracked by electroencephalograph (Example 4); format: in vivo; settings: for induced sleep (duration): 500 mg per kilogram, EEG
# Description: The preferred compound according to the invention was administered to labotatory rats, and the sleep of the animals induced by the drug was tracked by means of an electroencephalograph.
# Compound ethyl 4-acetoxybutanoate, administered by mouth at a dosage of 250 mg per kilogram body weight induced sleep for 1 hour 28 minutes. At a dosage of 500 mg per kilogram administered in one case by mouth and in another case intraperitoneally, sleep was induced for 4 hours.
# The administration to a similar laboratory rat, intraperitoneally, of a dosage of 500 mg per kilogram body weight of GHB induced sleep for only 1 hour 59 minutes, by contrast.
# [3] = Toxicity in animal models; settings: rat, in vivo; laboratory rats; read-out: dose required before a toxic level is reached
# Description: In tests conducted in animal models, the compound ethyl 4-acetoxybutanoate has evidenced extremely low levels of toxicity. In tests conducted with laboratory rats as reported below, doses as high as 3000 mg per kilogram body weight are required, before a toxic level is reached.
# rats = assay: Effects on sleep and righting time, intraperitoneal administration (Example 6); settings: 5 mM/kg body weight; for TIME SLEPT (mins) AVG 1: average based only on the animals which slept; for TIME SLEPT (mins): individual animals, asterisk = animal could be placed on its back for the time indicated, DNS = did not sleep
# [4] = individual animals, asterisk = animal could be placed on its back for the time indicated, DNS = did not sleep
# [5] = 250 or 500 mg per kilogram, by mouth or intraperitoneally
# [6] = average of all the rats, whether they slept or not
smiles,measurement,setting,value
"CCOC(=O)CCCOC(C)=O [EAB, ethyl 4-acetoxybutanoate]",TIME SLEPT (mins) RANGE,laboratory rats [1],103.9 to 331.6 min
same,animals put to sleep,laboratory rats [1],put all rats to sleep
same,animals that could be placed on their backs,laboratory rats [1],four of eleven could be placed on their backs for more than five hours
same,ill effects upon waking,laboratory rats [1],none of the animals exhibited any ill effects
same,muscle relaxation during sleep,laboratory rats [1],loose and flaccid
same,sign of toxicity,laboratory rats [1],No sign of toxicity was observed
same,TIME SLEPT (mins) AVG 1,laboratory rats [1],170.57 min
same,TIME SLEPT,laboratory rats [1]; [4],103.90 min and 120.30 min and 106.10 min and 125.75 min and 143.45 min and 120.00 min and 175.80 min
same,TIME SLEPT (mins),laboratory rats [1]; [4],331.60* mins and 311.50* mins and 317.65* mins and 300.20* mins
same,ill effects upon waking,laboratory rats [2]; [5],none of the animals exhibited ill effects
same,muscle relaxation during sleep,laboratory rats [2]; [5],the limbs and other body joints were quite flaccid
same,induced sleep (duration),laboratory rats [2]; by mouth,4 h
same,induced sleep (duration),laboratory rats [2]; intraperitoneally,4 h
same,NOAEL,[3],≥ 3000 mg/kg
same,TIME SLEPT (mins) RANGE,rats,39.30 to 259.00 min
same,ill effects upon waking,rats,none of them showed any ill effects
same,muscle relaxation during sleep,rats,exhibited a high degree of muscle relaxation
same,TIME SLEPT (mins) AVG 1,rats,126.89 min
same,TIME SLEPT (mins),rats,51.70* mins and 39.30* mins and 199.65* mins and 141.70* mins and 70.00* mins and 259.00* mins
"O=C(O)CCCO [GHB, hydroxybutyrate sodium salt, reference compound]",TIME SLEPT (mins) RANGE,laboratory rats [1],0 to 74.7 min
same,TIME SLEPT (mins) AVG 1,laboratory rats [1],65.76 min
same,TIME SLEPT (mins) AVG 2,laboratory rats [1]; [6],27.40 min
same,TIME SLEPT,"laboratory rats [1]; individual animals, asterisk = animal could be placed on its back for the time indicated, DNS = did not sleep, sodium salt",72.80 min and 64.70 min and 60.80 min and 55.80 min and 74.70 min
same,TIME SLEPT (mins) RANGE,rats,0 to 87.35 min
same,TIME SLEPT (mins) AVG 1,rats,72.04 min
same,TIME SLEPT (mins) AVG 2,rats; [6],48.03 min
same,TIME SLEPT (mins),rats; sodium salt,70.20* mins and 55.40* mins and 75.20* mins and 87.35* mins
